Experimental data: US20150258101A1 (Proximagen Limited, priority 2014, published 2015)

Biological target: T1, purified recombinantly expressed human SSAO (Homo sapiens, UniProt Q16853)
T1 construct: made in house
T1 sequence (Q16853 1-763): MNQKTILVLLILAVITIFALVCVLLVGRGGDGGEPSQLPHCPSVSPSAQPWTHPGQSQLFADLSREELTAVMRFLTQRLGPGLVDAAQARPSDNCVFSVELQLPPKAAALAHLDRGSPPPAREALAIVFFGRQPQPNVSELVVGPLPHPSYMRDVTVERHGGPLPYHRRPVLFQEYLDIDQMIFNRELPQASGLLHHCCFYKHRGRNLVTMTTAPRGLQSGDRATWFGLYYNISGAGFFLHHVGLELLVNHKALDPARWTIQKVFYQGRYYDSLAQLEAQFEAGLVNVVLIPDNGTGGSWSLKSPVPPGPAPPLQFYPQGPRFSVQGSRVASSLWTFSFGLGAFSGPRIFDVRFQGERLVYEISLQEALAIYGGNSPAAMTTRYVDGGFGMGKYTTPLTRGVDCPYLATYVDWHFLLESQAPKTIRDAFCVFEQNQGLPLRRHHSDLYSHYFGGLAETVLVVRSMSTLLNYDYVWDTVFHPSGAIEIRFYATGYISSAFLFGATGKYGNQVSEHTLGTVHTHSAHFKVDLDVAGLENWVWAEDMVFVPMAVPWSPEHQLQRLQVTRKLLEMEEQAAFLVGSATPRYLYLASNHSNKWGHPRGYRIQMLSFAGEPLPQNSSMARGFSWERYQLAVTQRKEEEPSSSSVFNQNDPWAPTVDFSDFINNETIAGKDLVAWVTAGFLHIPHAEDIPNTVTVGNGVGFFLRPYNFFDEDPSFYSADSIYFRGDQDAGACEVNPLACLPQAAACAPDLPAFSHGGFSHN
Experiment: SSAO enzyme inhibition assay (benzylamine substrate; hydrogen peroxide/HRP-coupled or 14C aldehyde detection)
Assay type: biochemical
Details: SSAO inhibitory activity, RT
Description: All primary assays were performed at RT. with purified recombinantly expressed human SSAO. Enzyme was prepared essentially as described in Öhman et al. (Protein Expression and Purification 46 (2006) 321-331). In addition, secondary- and selectivity assays were performed using SSAO prepared from various tissues or purified rat recombinant SSAO. The enzyme activity was assayed with benzylamine as substrate by measuring either benzaldehyde production, using ^14C-labeled substrate, or by utilizing the production of hydrogen peroxide in a horseradish peroxidase (HRP) coupled reaction. Briefly, test compounds were dissolved in dimethyl sulfoxide (DMSO) to a concentration of 10 mM. Dose-response measurements were assayed by either creating 1:10 serial dilutions in DMSO to produce a 7 point curve or by making 1:3 serial dilutions in DMSO to produce 11 point curves.
In a horseradish peroxidase (HRP) coupled reaction, hydrogen peroxide oxidation of 10-acetyl-3,7-dihydroxyphenoxazine produced resorufin, which is a highly fluorescent compound (Zhout and Panchuk-Voloshina. Analytical Biochemistry 253 (1997) 169-174; Amplex® Red Hydrogen Peroxide/peroxidase Assay kit, Invitrogen A22188). Enzyme and compounds in 50 mM sodium phosphate, pH 7.4 were set to pre-incubate in flat-bottomed microtiter plates for approximately 15 min before initiating the reaction by addition of a mixture of HRP, benzylamine and Amplex reagent. Benzylamine concentration was fixed at a concentration corresponding to the Michaelis constant, determined using standard procedures. Fluorescence intensity was then measured at several time points during 1-2 h, exciting at 544 nm and reading the emission at 590 nm. For the human SSAO assay final concentrations of the reagents in the assay wells were: SSAO enzyme 1 ug/ml, benzylamine 100 uM, Amplex reagent 20 uM, HRP 0.1 U/mL and varying concentrations of test compound. The inhibition was measured as % decrease of the signal compared to a control without inhibitor (only diluted DMSO). The background signal from a sample containing no SSAO enzyme was subtracted from all data points. Data was fitted to a four parameter logistic model and IC50 values were calculated using the Graph Pad Prism 4 or XLfit 4 programs.
SSAO activity was assayed using 14C-labeled benzylamine and analysed by measuring radioactive benzaldehyde. In a white 96-well optiplate (Packard), 20 uL of diluted test compound was pre-incubated at room temperature with 20 uL SSAO enzyme for approximately 15 min with continuous agitation. All dilutions were made with PBS. The reaction was initiated by adding 20 uL of the benzylamine substrate solution containing [7-14C] Benzylamine hydrochloride (CFA589, GE Healthcare). The plate was incubated for 1 h as above after which the reaction was stopped by acidification (10 uL 1M aq HCl). Then 90 uL Micro Scint-E solution (Perkin-Elmer) was added to each well and the plate was continuously mixed for 15 min. Phase separation occurred instantly and activity was read in a Topcount scintillation counter (Perkin-Elmer). In the final reaction well, the human recombinant SSAO concentration was 10 ug/ml. In order to optimize sensitivity, the substrate concentration was decreased as compared to the HRP coupled assay in order to get a higher fraction of radioactive product. In the human SSAO assay, benzylamine concentration was 40 uM (0.2 uCi/mL). Data was analysed as above.

## CN1CCN(c2ncc(-c3nc4ccncc4n3-c3ccc(F)cc3)cn2)CC1=O [Example 40, 4-{5-[3-(4-Fluorophenyl)-3H-imidazo[4,5-c]pyridin-2-yl]pyrimidin-2-yl}-1-methylpiperazin-2-one]
  IC50: 0.05 to 0.2 µM

## Fc1cc(Cl)ccc1-n1c(-c2cnc(N3CCCC3)nc2)nc2ccncc21 [Example 83, 5-[3-(4-Chloro-2-fluorophenyl)-3H-imidazo[4,5-c]pyridin-2-yl]-2-(pyrrolidin-1-yl)pyrimidine]
  IC50: < 0.05 µM

## Clc1ccc(-n2c(-c3cnccn3)cc3ccncc32)cc1 [Example 124, 2-[1-(4-Chlorophenyl)-1H-pyrrolo[2,3-c]pyridin-2-yl]pyrazine]
  IC50: < 0.05 µM

## Fc1ccc(-n2c(-c3ccc(N4CCOCC4)nc3)nc3ccncc32)c(F)c1 [Example 41, 4-{5-[3-(2,4-Difluorophenyl)-3H-imidazo[4,5-c]pyridin-2-yl]pyridin-2-yl}morpholine]
  IC50: < 0.05 µM

## Clc1ccc(-n2c(-c3cncc(Cl)c3)cc3ccncc32)cc1 [Example 150, 3-Chloro-5-[1-(4-chlorophenyl)-1H-pyrrolo[2,3-c]pyridin-2-yl]pyridine]
  IC50: 0.05 to 0.2 µM

## Fc1ccc(-n2c(-c3ccnc(N4CCOCC4)c3)nc3ccncc32)cc1 [Example 73, 4-{4-[3-(4-Fluorophenyl)-3H-imidazo[4,5-c]pyridin-2-yl]pyridin-2-yl}morpholine]
  IC50: 0.05 to 0.2 µM

## Cc1nc(C)c(-c2cc3ccncc3n2-c2ccc(Cl)cc2)[nH]1 [Example 126, 5-[1-(4-Chlorophenyl)-1H-pyrrolo[2,3-c]pyridin-2-yl]-2,4-dimethyl-1H-imidazole]
  IC50: < 0.05 µM

## Fc1cc(-n2c(-c3cnc(N4CCOCC4)nc3)nc3ccncc32)ccc1Cl [Example 74, 4-{5-[3-(4-Chloro-3-fluorophenyl)-3H-imidazo[4,5-c]pyridin-2-yl]pyrimidin-2-yl}morpholine]
  IC50: 0.2 to 1.2 µM

## Fc1ccc(-n2c(-c3cnc(N4CCCOCC4)nc3)nc3ccncc32)cc1 [Example 25, 4-{5-[3-(4-Fluorophenyl)-3H-imidazo[4,5-c]pyridin-2-yl]pyrimidin-2-yl}-1,4-oxazepane]
  IC50: < 0.05 µM

## Clc1ccc(-n2c(-c3ccccn3)cc3ccncc32)cc1 [Example 121, 2-[1-(4-Chlorophenyl)-1H-pyrrolo[2,3-c]pyridin-2-yl]pyridine]
  IC50: < 0.05 µM

## O=c1cc(N2CCOCC2)[nH]cc1-c1nc2ccncc2n1-c1ccc(F)cc1 [Example 99, 5-[3-(4-Fluorophenyl)-3H-imidazo[4,5-c]pyridin-2-yl]-2-(morpholin-4-yl)-1,4-dihydropyridin-4-one]
  IC50: < 0.05 µM

## CN1CCN(Cc2cccc(-c3nc4ccncc4n3-c3ccc(Cl)cc3)c2)CC1 [Example 45, 1-({3-[3-(4-Chlorophenyl)-3H-imidazo[4,5-c]pyridin-2-yl]phenyl}methyl)-4-methylpiperazine; formic acid]
  IC50: 0.2 to 1.2 µM

## Fc1ccc(-n2c(-c3ccc(C4CCOCC4)nn3)nc3ccncc32)cc1 [Example 15, 3-[3-(4-Fluorophenyl)-3H-imidazo[4,5-c]pyridin-2-yl]-6-(oxan-4-yl)pyridazine]
  IC50: 0.05 to 0.2 µM

## Cc1cc(N2CCOCC2)ncc1-c1cc2ccncc2n1-c1ccc(Cl)cc1 [Example 129, 4-{5-[1-(4-Chlorophenyl)-1H-pyrrolo[2,3-c]pyridin-2-yl]-4-methylpyridin-2-yl}morpholine; bis(trifluoroacetic acid)]
  IC50: < 0.05 µM

## Clc1ccc(-n2c(-c3cnc(N4CCOCC4)cn3)nc3ccncc32)cc1 [Example 5, 4-{5-[3-(4-Chlorophenyl)-3H-imidazo[4,5-c]pyridin-2-yl]pyrazin-2-yl}morpholine]
  IC50: 0.05 to 0.2 µM

## CCn1ccc(-c2cc3ccncc3n2-c2ccc(Cl)cc2)cc1=O [Example 144, 4-[1-(4-Chlorophenyl)-1H-pyrrolo[2,3-c]pyridin-2-yl]-1-ethyl-1,2-dihydropyridin-2-one]
  IC50: 0.05 to 0.2 µM

## Clc1ccc(-n2c(-c3cccnc3)nc3ccncc32)cc1 [Example 1, 3-[3-(4-Chlorophenyl)-3H-imidazo[4,5-c]pyridin-2-yl]pyridine]
  IC50: 0.2 to 1.2 µM

## Clc1ccc(-n2c(-c3cnc(NCC4CC4)nc3)cc3ccncc32)cc1 [Example 149, 5-[1-(4-Chlorophenyl)-1H-pyrrolo[2,3-c]pyridin-2-yl]-N-(cyclopropylmethyl)pyrimidin-2-amine]
  IC50: < 0.05 µM

## Cn1nccc1-c1cc2ccncc2n1-c1ccc(Cl)cc1 [Example 134, 5-[1-(4-Chlorophenyl)-1H-pyrrolo[2,3-c]pyridin-2-yl]-1-methyl-1H-pyrazole]
  IC50: < 0.05 µM

## Cc1ccc(-n2c(-c3cnc(N4CCOCC4)nc3)nc3ccncc32)nc1 [Example 79, 4-{5-[3-(5-Methylpyridin-2-yl)-3H-imidazo[4,5-c]pyridin-2-yl]pyrimidin-2-yl}morpholine]
  IC50: < 0.05 µM

## CN(C)c1ncc(-c2nc3ccncc3n2-c2ccc(Cl)cc2)cn1 [Example 72, 5-[3-(4-Chlorophenyl)-3H-imidazo[4,5-c]pyridin-2-yl]-N,N-dimethylpyrimidin-2-amine]
  IC50: 0.2 to 1.2 µM

## Cc1ccc(-n2c(-c3cnc(N4C[C@@H](C)O[C@@H](C)C4)nc3)nc3ccncc32)nc1 [Example 36, (2R,6S)-2,6-Dimethyl-4-{5-[3-(5-methylpyridin-2-yl)-3H-imidazo[4,5-c]pyridin-2-yl]pyrimidin-2-yl}morpholine]
  IC50: 0.05 to 0.2 µM

## Fc1ccc(-n2c(-c3cnc(NCC4CC4)nc3)nc3ccncc32)cc1 [Example 9, N-(Cyclopropylmethyl)-5-[3-(4-fluorophenyl)-3H-imidazo [4,5-c]pyridin-2-yl]pyrimidin-2-amine]
  IC50: < 0.05 µM

## Clc1ccc(-n2c(-c3ccc(CN4CCOCC4)cc3)nc3ccncc32)cc1 [Example 49, 4-({4-[3-(4-Chlorophenyl)-3H-imidazo[4,5-c]pyridin-2-yl]phenyl}methyl)morpholine]
  IC50: < 0.05 µM

## CN(C)c1ncc(-c2nc3ccncc3n2-c2ccc(Cl)cc2F)cn1 [Example 84, 5-[3-(4-Chloro-2-fluorophenyl)-3H-imidazo[4,5-c]pyridin-2-yl]-N,N-dimethylpyrimidin-2-amine]
  IC50: < 0.05 µM

## O=c1cc(-c2nc3ccncc3n2-c2ccc(Cl)cc2F)ccn1C1CC1 [Example 116, 4-[3-(4-Chloro-2-fluorophenyl)-3H-imidazo[4,5-c]pyridin-2-yl]-1-cyclopropyl-1,2-dihydropyridin-2-one]
  IC50: 0.05 to 0.2 µM

## Fc1ccccc1-n1c(-c2cnc(N3CCOCC3)nc2)nc2ccncc21 [Example 60, 4-{5-[3-(2-Fluorophenyl)-3H-imidazo[4,5-c]pyridin-2-yl]pyrimidin-2-yl}morpholine]
  IC50: 0.05 to 0.2 µM

## Cc1ccc(-n2c(-c3cnc(N4C[C@@H](C)O[C@@H](C)C4)nc3)nc3ccncc32)cn1 [Example 118, (2R,6S)-2,6-Dimethyl-4-{5-[3-(6-methylpyridin-3-yl)-3H-imidazo[4,5-c]pyridin-2-yl]pyrimidin-2-yl}morpholine]
  IC50: < 0.05 µM
